Legend:
20-HETE = conditions: cited from earlier work
REC11 cells = experiment: BrdU proliferation of EGF-stimulated REC11 cystic renal epithelial cells; type: cell-based, mouse; conditions: 10 μM, 36 hrs, after EGF 25 ng/ml for 6 hours
From the text: REC11 cystic cell line is a conditionally immortalized epithelial collecting tubule (CT) cell line derived from the cystic kidneys of the BPK mouse model of human ARPKD crossed to the ImmortoMouse. The BPK mouse as a human ARPKD model has been described in Nauta J. et al., Pediatr Nephrol 1993, 7:163-172 and Nauta J. et al., Pediatr Res 1995, 37:755-763. The procedures for immortalization, cell isolation, cell culture and the complete phenotypic characterization of this cell line have been described in detail in Sweeney W. E. et al., Am J Physiol C Physiol 2001, 281:C1695-705. All analysis and experiments were performed on REC11 cells grown for a minimum 6 days under non-permissive conditions to eliminate residual Large T.
Proliferation of REC11 cells was stimulated by exposure of the cells for 6 hours with EGF (25 ng/ml). Next, the cells were treated with vehicle, HET0016 (10 μM, a 20-HETE synthesis inhibitor), HET0016 (20 μM), DDMS (10 μM, a 20-HETE synthesis inhibitor), or WIT-002 (10 μM, a 20-HETE antagonist) for 36 hrs, pulsed with BrdU, and then stained for BrdU labeled cells to determine the degree of cell proliferation. […] Cells treated with a higher dose of HET0016 (20 μM) (column C) reduced proliferation by 75% (p<0.020). Cells treated with another chemically dissimilar inhibitor of the synthesis of 20-HETE, DDMS (10 μM) (column D), reduced proliferation by 47% (p<0.05). Cells treated with WIT-002 (10 μM) (column E) reduced proliferation by 25%.

cystic BPK cells = experiment: BrdU incorporation in cystic BPK cells; type: cell-based, mouse; conditions: 10 μM, 36 hours; vehicle 118
Procedure: To determine the level of proliferation in the cystic BPK cells, chemically dissimilar inhibitors of cytochrome P450 4A (CYP4A) and 4F (CYP4F) inhibitors, specifically HET-0016 (10 and 20 μM) and DDMS (10 μM), were incubated for 36 hours with the BPK cells. Three hours prior to the harvesting of the cells, 5-bromo-2′-deoxyuridine (BrdU) at a concentration of 30 μM was added to determine the level of cell cycle inhibition. The cells were subsequently methanol fixed and BrdU-positive cells were identified by immunohistology with biotinylated monoclonal anti-BrdU antibody (Zymed, South San Francisco, Calif.). Data were expressed as the percentage of BrdU-labeled cells per 500 counted cells.

| Structure (SMILES) | 20-HETE levels in vivo (20-HETE) | reduction of proliferation (BrdU labeled cells) vs vehicle (REC11 cells) [%] | BrdU-positive cells per 500 total cells counted (cystic BPK cells) |
| --- | --- | --- | --- |
| Nn1nnc2ccccc21 [Compound 1-ABT, 1-aminobenzotriazole] | reduce 20-HETE levels in vivo |  |  |
| C#CCCCCCCCCCCCCCCCC(=O)O [Compound 17-ODYA, 17-Octadecynoic acid] | reduce 20-HETE levels in vivo |  |  |
| CS(=O)(=O)NC(=O)CCCCCCCCCC=C(Br)Br [DDMS, dibromododecenyl methylsulfonimide] |  | 47 | 63 BrdU(+) cells |
| O=C(O)CCCC/C=C\CCCCCCC/C=C\CCCCO [WIT-002, 20-hydroxyeicosa-6(Z),15(Z)-dienoic acid] |  | 25 |  |
